Measurements: US20060128662A1, “Novel compounds for treatment of obesity” (Novo Nordisk A/S, priority 2003, published 2006)
pEC50: −log10 of the molar value.

system: FSK-4 cells; assay: Assay (I): Glucose utilisation in a human epithelia cell line (FSK4 cells), D-(6-3H(N))-glucose; type: cell-based; conditions: 24 hours incubation, Hill equation, read-out: GlucosFSK4 EC50
Protocol: Assay (I): Glucose Utilisation in a Human Epithelia Cell Line (FSK4 cells)
The ^3H-proton will first be released in the TCA cyclus and transported to the respiratory chain where it will be incorporated into water. The water is thereafter separated from the D-(6-^3H(N))-glucose by evaporation.
FSK-4 cells obtained from ATCC (Maryland, USA), are cultured in growth medium (McCoy's medium with the following addition 100 units/ml penicillin and streptomycin and 10% FCS (fetal calf serum)) at 37° C. and 5% CO2.
The cells are then incubated for another 24 hours at 37° C. and 5% CO2.
The half maximal concentration (EC50) and maximal efficacy (Emax) are calculated using the Hill equation in GraphPad Prism 3.0 (GraphPad software, Inc.). […] From the percentage increase in glucose utilisation the linear slope is calculated using the Michaelis-Menten equation.

pEC50	SMILES
5.00	C/C(=C(/C#N)S(=O)(=O)c1ccc(Cl)cc1)c1cc(C(C)(C)C)c(O)c(C(C)(C)C)c1 [Example 7, (E/Z)-2-(4-Chloro-benzenesulfonyl)-3-(3,5-di-tert-butyl-4-hydroxy-phenyl)-but-2-enenitrile]
5.82	COc1ccc(S(=O)(=O)/C(C#N)=C/c2cc(C(C)(C)C)c(O)c(C(C)(C)C)c2)cc1OC [Example 48, 3-(3,5-Di-tert-butyl-4-hydroxy-phenyl)-2-(3,4-dimethoxy-benzenesulfonyl)-acrylonitrile]
6.30	CC(C)(C)c1cc(/C=C(\C#N)S(=O)(=O)c2cccc(OC(F)(F)F)c2)cc(C(C)(C)C)c1O [Example 39, 3-(3,5-Di-tert-butyl-4-hydroxy-phenyl)-2-(3-trifluoromethoxy-benzenesulfonyl)-acrylonitrile]
6.15	CC(C)(C)c1cc(/C=C(\C#N)S(=O)(=O)Cc2ccc(Cl)cc2)cc(C(C)(C)C)c1O [Example 24, (E)-2-(4-Chloro-phenylmethanesulfonyl)-3-(3,5-di-tert-butyl-4-hydroxy-phenyl)-acrylonitrile]
5.64	CN(C)C(=O)c1ccc(S(=O)(=O)/C(C#N)=C/c2cc(C(C)(C)C)c(O)c(C(C)(C)C)c2)cc1 [Example 14]
5.52	CC(C)(C)c1cc(/C=C(\C#N)S(=O)(=O)c2ccccc2C(=O)N2CCOCC2)cc(C(C)(C)C)c1O [Example 44, 3-(3,5-Di-tert-butyl-4-hydroxy-phenyl)-2-[2-(morpholine-4-carbonyl)-benzenesulfonyl]-acrylonitrile]
6.22	CC(C)(C)c1cc(/C=C(\C#N)S(=O)(=O)c2ccccc2OC(F)(F)F)cc(C(C)(C)C)c1O [Example 40, 3-(3,5-Di-tert-butyl-4-hydroxy-phenyl)-2-(2-trifluoromethoxy-benzenesulfonyl)-acrylonitrile]
5.05	CC(C)(C)c1cc(/C=C(\C#N)S(=O)(=O)c2ccccc2C(=O)O)cc(C(C)(C)C)c1O [Example 42]
5.13	CC(C)(C)c1cc(/C=C(\C#N)S(=O)(=O)c2ccc(C(=O)NCCO)cc2)cc(C(C)(C)C)c1O [Example 17]
5.85	CC(C)(C)c1cc(/C=C(\C#N)S(=O)(=O)c2ccc([N+](=O)[O-])cc2)cc(C(C)(C)C)c1O [Example 9, (E)-3-(3,5-Di-tert-butyl-4-hydroxy-phenyl)-2-(4-nitro-benzenesulfonyl)-acrylonitrile]
5.52	CC(C)(C)c1cc(/C=C(\C#N)S(=O)(=O)c2cccc(C(=O)N3CCOCC3)c2)cc(C(C)(C)C)c1O [Example 45, 3-(3,5-Di-tert-butyl-4-hydroxy-phenyl)-2-[3-(morpholine-4-carbonyl)-benzenesulfonyl]-acrylonitrile]
5.54	CC(C)(C)c1ccc(S(=O)(=O)/C(C#N)=C/c2cc(C(C)(C)C)c(O)c(C(C)(C)C)c2)cc1 [Example 29, 2-(4-tert-Butyl-benzenesulfonyl)-3-(3,5-di-tert-butyl-4-hydroxy-phenyl)-acrylonitrile]
5.64	CC(C)c1ccc(S(=O)(=O)/C(C#N)=C/c2cc(C(C)(C)C)c(O)c(C(C)(C)C)c2)cc1 [Example 34, 3-(3,5-Di-tert-butyl-4-hydroxy-phenyl)-2-(4-isopropyl-benzenesulfonyl)-acrylonitrile]
6.05	CC(C)(C)c1cc(/C=C(\C#N)S(=O)(=O)c2ccc(Cl)cn2)cc(C(C)(C)C)c1O [Example 41, 2-(5-Chloro-pyridine-2-sulfonyl)-3-(3,5-di-tert-butyl-4-hydroxy-phenyl)-acrylonitrile]
5.29	CC(C)(C)c1cc(/C=C(\C#N)S(=O)(=O)c2ccc(C(=O)N3CCOCC3)cc2)cc(C(C)(C)C)c1O [Example 19, (E)-3-(3,5-Di-tert-butyl-4-hydroxy-phenyl)-2-[4-(morpholine-4-carbonyl)-benzenesulfonyl]-acrylonitrile]
5.22	CC(C)(C)c1cc(/C=C(\C#N)S(=O)(=O)c2ccc(Cl)cc2)cc([N+](=O)[O-])c1O [Example 12, (E)-3-(3-tert-Butyl-4-hydroxy-5-nitro-phenyl)-2-(4-chloro-benzenesulfonyl)-acrylonitrile]
5.08	Cn1ccnc1S(=O)(=O)/C(C#N)=C/c1cc(C(C)(C)C)c(O)c(C(C)(C)C)c1 [Example 6, (E)-3-(3,5-Di-tert-butyl-4-hydroxy-phenyl)-2-(1-methyl-1H-imidazole-2-sulfonyl)-acrylonitrile]
5.00	CC(O)CN(CC(C)O)C(=O)c1ccc(S(=O)(=O)/C(C#N)=C/c2cc(C(C)(C)C)c(O)c(C(C)(C)C)c2)cc1 (stereo not shown) [Example 15]

pEC50	SMILES
5.70	CC(C)(C)c1cc(/C=C(\C#N)S(=O)(=O)Cc2ccco2)cc(C(C)(C)C)c1O [Example 31, 3-(3,5-Di-tert-butyl-4-hydroxy-phenyl)-2-(furan-2-ylmethanesulfonyl)-acrylonitrile]
6.40	CC(C)(C)c1cc(/C=C(\C#N)S(=O)(=O)/C(C#N)=C/c2cc(C(C)(C)C)c(O)c(C(C)(C)C)c2)cc(C(C)(C)C)c1O [Example 22]
5.48	CC(C)(C)c1cc(C=C(C#N)S(=O)(=O)c2cc(C(C)(C)C)c(O)c(C(C)(C)C)c2)cc(C(C)(C)C)c1O [Example 35, 2-(3,5-Di-tert-butyl-4-hydroxy-benzenesulfonyl)-3-(3,5-di-tert-butyl-4-hydroxy-phenyl)-acrylonitrile]
5.77	CC1CN(C(=O)c2ccc(S(=O)(=O)/C(C#N)=C/c3cc(C(C)(C)C)c(O)c(C(C)(C)C)c3)cc2)CC(C)O1 (stereo not shown) [Example 18, (E)-3-(3,5-Di-tert-butyl-4-hydroxy-phenyl)-2-[4-(2,6-dimethyl-morpholine-4-carbonyl)-benzenesulfonyl]-acrylonitrile]
5.43	CC(C)(C)c1cc(/C=C(\C#N)S(=O)(=O)c2ccc(C(=O)N(CCO)CCO)cc2)cc(C(C)(C)C)c1O [Example 26]
6.15	CC(C)(C)c1cc(/C=C(\C#N)S(=O)(=O)c2ccc(S(C)(=O)=O)cc2)cc(C(C)(C)C)c1O [Example 38, 3-(3,5-Di-tert-butyl-4-hydroxy-phenyl)-2-(4-methanesulfonyl-benzenesulfonyl)-acrylonitrile]
5.66	CC(C)(C)c1cc(/C=C(\C#N)S(=O)(=O)c2ccc(C3CC=CO3)cc2)cc(C(C)(C)C)c1O (stereo not shown) [Example 49, 3-(3,5-Di-tert-butyl-4-hydroxy-phenyl)-2-[4-(2,3-dihydro-furan-2-yl)-benzenesulfonyl]-acrylonitrile]
5.55	CC(C)(C)c1cc(/C=C(\C#N)S(=O)(=O)c2ccc(N)cc2)cc(C(C)(C)C)c1O [Example 20, (E)-2-(4-Amino-benzenesulfonyl)-3-(3,5-di-tert-butyl-4-hydroxy-phenyl)-acrylonitrile]
6.05	CC(C)(C)c1cc(/C=C(\C#N)S(=O)(=O)c2ccc(/C=C/c3ccccc3)cc2)cc(C(C)(C)C)c1O [Example 51, 3-(3,5-Di-tert-butyl-4-hydroxy-phenyl)-2-(4-styryl-benzenesulfonyl)-acrylonitrile]
5.40	COCCN(CCOC)C(=O)c1ccc(S(=O)(=O)/C(C#N)=C/c2cc(C(C)(C)C)c(O)c(C(C)(C)C)c2)cc1 [Example 13]
5.05	CC(C)(C)c1cc(/C=C(\C#N)S(=O)(=O)c2ccccn2)cc(C(C)(C)C)c1O [Example 3, (E)-3-(3,5-Di-tert!-butyl-4-hydroxy-phenyl)-2-(pyridine-2-sulfonyl)-acrylonitrile]
5.92	CC(C)(C)c1cc(/C=C(\C#N)S(=O)(=O)c2cccs2)cc(C(C)(C)C)c1O [Example 23, (E)-3-(3,5-Di-tert-butyl-4-hydroxy-phenyl)-2-(thiophene-2-sulfonyl)-acrylonitrile]
5.49	CN1CCN(C(=O)c2ccc(S(=O)(=O)/C(C#N)=C/c3cc(C(C)(C)C)c(O)c(C(C)(C)C)c3)cc2)CC1 [Example 16, (E)-3-(3,5-Di-tert-butyl-4-hydroxy-phenyl)-2-[4-(4-methyl-piperazine-1-carbonyl)-benzenesulfonyl]-acrylonitrile]
6.00	COc1ccc(S(=O)(=O)/C(C#N)=C/c2cc(C(C)(C)C)c(O)c(C(C)(C)C)c2)cc1 [Example 46, 3-(3,5-Di-tert-butyl-4-hydroxy-phenyl)-2-(4-methoxy-benzenesulfonyl)-acrylonitrile]
5.46	CC1COCC(C)N1C(=O)c1ccc(S(=O)(=O)/C(C#N)=C/c2cc(C(C)(C)C)c(O)c(C(C)(C)C)c2)cc1 (stereo not shown) [Example 27, 3-(3,5-Di-tert-butyl-4-hydroxy-phenyl)-2-[4-(3,5-dimethyl-morpholine-4-carbonyl)-benzenesulfonyl]-acrylonitrile]
5.66	CC(C)(C)c1cc(/C=C(\C#N)S(=O)(=O)c2ccc(OC(F)(F)F)cc2)cc(C(C)(C)C)c1O [Example 11, (E)-3-(3,5-Di-tert-butyl-4-hydroxy-phenyl)-2-(4-trifluoromethoxy-benzenesulfonyl)-acrylonitrile]
6.10	COc1cccc(S(=O)(=O)/C(C#N)=C/c2cc(C(C)(C)C)c(O)c(C(C)(C)C)c2)c1 [Example 47, 3-(3,5-Di-tert-butyl-4-hydroxy-phenyl)-2-(3-methoxy-benzenesulfonyl)-acrylonitrile]
5.96	Cc1ccc(S(=O)(=O)/C(C#N)=C/c2cc(C(C)(C)C)c(O)c(C(C)(C)C)c2)cc1 [Example 33, 3-(3,5-Di-tert-butyl-4-hydroxy-phenyl)-2-(toluene-4-sulfonyl)-acrylonitrile]

SMILES	pEC50
CC(C)CO/C=C/c1ccc(S(=O)(=O)/C(C#N)=C/c2cc(C(C)(C)C)c(O)c(C(C)(C)C)c2)cc1 [Example 52, 3-(3,5-Di-tert-butyl-4-hydroxy-phenyl)-2-[4-(2-isobutoxy-vinyl)-benzenesulfonyl]-acrylonitrile]	6.00
